Several values for one entry are separate records, joined by “and”; a condition that tells them apart may be missing. Identical values can stand only once.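 How tested: cells in 96-well plates exposed to compound for 48 hours at five concentrations. GI50 = concentration required for 50% inhibition of growth. TGI: total growth inhibition.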

Common to all, as to test: growth of human tumour cells (NCI), 48 h
For experiment [1], the system named is T-47D breast.
For experiment [2], the system named is DMS 114 small cell lung.
Experiment [3] relates to DLD-1 colon.
Experiment [4] has as its system KM20L2 colon.
The test system of experiment [5] is XF 498 CNS.
Experiment [6] relates to LXFL 529 NSCLC.
In experiment [7] the test system is HOP-18 NSCLC.
Experiment [8] relates to RXF-631 renal.
In experiment [9] the test system is MDA-N.

Regarding `Nc1cc(O)ccc1N=Nc1ccc(-c2nc3ccccc3[nH]2)cc1`, in experiment [1], the GI50 was 29.9 µM and the TGI is above 100 µM.

On to `COC(=O)/C(=N/Nc1cccc(Cl)c1)C(C(=O)C(=O)Nc1cccc(Cl)c1C)c1nc2ccccc2nc1C` (stereo unspecified), for which the TGI in experiment [2], in experiment [3] and in experiment [4] was above 100 µM each time.

As for `Cc1ccc(-c2c3c(nn2-c2ccc(S(N)(=O)=O)cc2)-c2ccccc2C3)cc1`, in [1], the GI50 was 71.3 µM and the TGI is above 100 µM.

Turning to `CC1=C(/C=C/C(C)=C/C=C/C(C)=C/C=N/NC(=S)NC(=S)N/N=C/C=C(C)/C=C/C=C(C)/C=C/C2=C(C)CCCC2(C)C)C(C)(C)CCC1`, in experiment [1], the GI50 is 1.49 µM and 1.09 µM; the TGI is 8.43 µM and 4.34 µM.

`COc1ccccc1C1=C(Nc2ccccc2)C(=O)NC1=O`: in experiment [1], the GI50 is above 25 µM and the TGI is above 25 µM.

`Cc1noc2c1C(=O)CCC2`: the TGI in [5], in experiment [2], in [6], in experiment [7], in experiment [3] and in experiment [4] was above 100 µM throughout.

As to `CCCCCCNC(=O)Oc1ccc(/C(=C(/C)Cc2ccc(OC)cc2)c2ccc(OCCCN(C)C)cc2)cc1`, in experiment [1], the GI50 is 11.3 µM and the TGI turned out to be 27.3 µM.

For the molecule `COC(=O)C1C=CCON2CCc3c(n(C)c4ccccc34)C12` (stereo unspecified), the TGI in experiment [5], in [2], in experiment [6], in [8], in experiment [3] and in experiment [4] was above 100 µM each time.

Turning to `O=c1cc(-c2c[nH]c3ccccc23)[nH]c2cc3c(cc12)OCO3`, the TGI in experiment [5], in experiment [2], in experiment [6], in experiment [8], in [3] and in experiment [4] was above 100 µM throughout.

Regarding `CC(=O)OC1=CC2=CC[C@H]3[C@@H]4CCC(=O)[C@@]4(C)CC(=O)[C@]3(S)[C@@]2(C)CC1`, the TGI in [9] and in experiment [1] was above 100 µM in each case.

Regarding `CN(COC(=O)c1ccccc1)c1nc(N(C)COC(=O)c2ccccc2)nc(N(C)COC(=O)c2ccccc2)n1`, the TGI in [9] and in experiment [1] was above 100 µM throughout.

For the molecule `Cc1cc(-c2ccccc2)nc(Nc2nc3ccccc3o2)n1`, the TGI in experiment [5], in experiment [2], in experiment [6], in [3] and in [4] was above 100 µM throughout.

Consider `Cc1ccc(NC(=O)C2C(=O)N(c3ccc(C)c(C)c3)C(=O)/C2=N\NC(N)=O)cc1C` (stereo unspecified), for which the TGI in experiment [5], in [2], in [6], in experiment [7], in experiment [3] and in [4] was above 100 µM throughout.

For the molecule `COC(=O)C1OC2(CCCC3CC32)O[C@H]1C(=O)OC` (stereo partly specified), in [9], the TGI was above 100 µM.

For `S=C(Nc1ccc(N=Nc2ccccc2)cc1)SCc1ccccc1`, in [1], the TGI is above 100 µM.

On to `O=C1C2=C(c3ccccc31)C(c1ccccc1)N1C(=O)CSC1=N2` (stereo unspecified), for which the TGI was above 100 µM in experiment [5]; above 100 µM in experiment [2]; above 100 µM in experiment [6]; above 100 µM in [8]; 47.3 µM in [9]; 77.6 µM in experiment [1]. Further, the TGI in experiment [3] and in experiment [4] was above 100 µM throughout.

Consider `CC(C)N1CCN(Cc2ccc3c(NNC(=O)c4ccccc4)nc4cc(F)ccc4n23)CC1`, for which, in experiment [1], the GI50 is 0.419 µM and the TGI came out at 11.7 µM.

As for `COc1ccc2c(C3(c4cn(C)c5cc(OC)ccc45)C(=O)Nc4ccc(Cl)cc43)cn(C)c2c1`, in experiment [1], the GI50 is 3.89 µM and the TGI was above 100 µM.

As for `NC1=NC(c2ccc(Cl)cc2)N(c2ccc(S(N)(=O)=O)cc2)C(N)=N1` (stereo unspecified), the TGI in experiment [9] and in [1] was above 100 µM throughout.

As for `CCCCCCCCCCCCCCCCNCCCN(C)CCCN`, the TGI was found to be 35.1 µM in experiment [2], 33.2 µM in experiment [6], 36 µM in experiment [3] and 32.7 µM in experiment [4].

In the case of `C#CC[N+](C)(CC#C)CC#C`, the TGI in experiment [5], in [2], in [6], in [8], in experiment [3] and in [4] was above 100 µM in each case.

Take `COc1cccc2c1-c1c(c3ccc([N+](=O)[O-])cc3c(=O)n1CCCN)C2=O`: in [1], the GI50 is 1.52 µM and the TGI turned out to be 3.63 µM.

`Cc1cc(Nc2nc(-c3cccnc3)nc3ccccc23)n[nH]1`: in experiment [1], the GI50 was 2.02 µM and the TGI is above 75.4 µM.

In the case of `CCC(c1ccc(OC)cc1)C(CC)c1ccc(O)c(CN2CCN(C)CC2)c1` (stereo unspecified), in experiment [1], the GI50 was 2.57 µM and the TGI came to 8.35 µM.

As to `O=C(O)C1CC2(C1)CC(C(=O)O)C2` (stereo unspecified), the TGI in [9] and in [1] was above 100 µM each time.

For the molecule `O=C(CSc1ncn[nH]1)C[P+](c1ccccc1)(c1ccccc1)c1ccccc1`, the TGI in [5], in [2], in experiment [6], in [3] and in experiment [4] was above 100 µM each time.

As for `CCOc1cc(Br)c(C(C)NC(=O)c2cccc(OC)c2)cc1OCC` (stereo unspecified), in [1], the GI50 is 9.53 µM and the TGI is above 100 µM.

As to `O=C(O)c1cn(C2CC2)c2cc(N3CCN(C(=O)Nc4nc(-c5ccccc5)cs4)CC3)c(F)cc2c1=O`, in experiment [1], the GI50 was 1.74 µM and the TGI is above 100 µM.

Turning to `COc1ccc(/C=c2\sc3n(c2=O)C2C(NN=3)N(C)C(=O)N2C)cc1` (stereo unspecified), in [1], the GI50 is 1.56 µM and the TGI is above 100 µM.

The values above are taken from PubChem BioAssay (NCI).
